Measurements as given in US20250152592A1, “PHARMACEUTICAL COMPOSITION COMPRISING ALLOPURINOL, FEBUXOSTAT OR PHARMACEUTICALLY ACCEPTABLE SALT THEREOF FOR PREVENTION OR TREATMENT OF CHRONIC KIDNEY DISEASE IN SUBJECT HAVING HIGH SERUM URIC ACID CONCENTRATION” (Indream Healthcare Inc., priority 2022, published 2025).

Experiments:
[1] = test system: patients with gout and a history of major cardiovascular diseases; experiment: clinical trial febuxostat vs allopurinol: serum uric acid, gout flare, treatment discontinuation; format: in vivo, human; conditions: overall, during the trial
Procedure: (§1) In order to evaluate non-inferiority of febuxostat to allopurinol related to cardiovascular risk, a clinical trial was designed and proceeded.
(§2) A multicenter, randomized, double-blind non-inferiority trial was performed. The details of the clinical trial design have been published previously. An independent data and safety monitoring committee with access to unblinded data monitored the clinical trial. The statistical analysis for the data and the safety monitoring committee was performed by an independent statistical group (WebbWrites).
(§3) The patients were regarded as having a history of major cardiovascular diseases, if they had myocardial infarction, hospitalization for unstable angina, stroke, hospitalization for transient ischemic attack, peripheral vascular disease, or diabetes mellitus symptoms. All participants provided a prior informed consent form.
(§4) The patients were randomly assigned so that they received febuxostat or allopurinol administered once a day in a double-blind manner. The randomization was stratified according to the estimated creatinine clearance at baseline (patient group having an estimated creatinine clearance ≥60 ml per minute vs patient group having an estimated creatinine clearance ≥30 and <60 ml per minute).
(§5) The dose of allopurinol was modified according to a kidney function. The patients with the estimated creatinine clearance 60 ml or more per minute i) initially received allopurinol at a dose of 300 mg once a day, and the dose was increased in 100 mg increments monthly until the patient had the serum uric acid concentration of less than 6.0 mg per deciliter or the dosage of allopurinol was 600 mg once a day. The patient having the estimated creatinine clearance of 30 ml or more and less than 60 ml per minute initially received 200 mg of allopurinol, and then the dose was increased in 100 mg increments until the patient either had the serum uric acid concentration of less than 6.0 mg per deciliter or was receiving the allopurinol dose of 400 mg once daily.
(§6) The dose of febuxostat was not modified according to the kidney function. The patients who were randomly assigned to receive febuxostat initially received 40 mg once a daily, and continued to receive the same dosage if the serum uric acid concentration was less than 6.0 mg per deciliter after 2 weeks of the treatment. If the serum uric acid concentration was higher than 6.0 mg per deciliter at 2nd week visit, the dose of febuxostat was increased to 80 mg once daily for the remainder of the trial.
(§7) During the period, the administration of a double-blind and double-dummy trial medications was guided by an interactive voice-response system which was a procedure to prevent unblinding for the patients whose dose was not adjusted. After completing dose adjustment, the urate level was concealed from the investigators, and the treatment was managed throughout the trial using the interactive voice-response system.
(§8) Outpatient visits were conducted according to the following schedule: during screening and randomization, and at 2, 4, 6, 8, 10, 12, and 24 weeks after the randomization, and every 6 months during the subsequent years of the trial. The patients with reduced kidney function or, the patients aged 65 years or older at randomization were visited at 9 and 15 months for monitoring the serum chemical profile. If the patient agreed to be monitored, but would not return for study visit, telephone contact was made, but such method was not preferred or recommended.

[2] = test system: patients with gout and a history of major cardiovascular diseases; experiment: eGFR over time by average serum uric acid concentration, analysis of clinical trial data; format: in vivo, human; conditions: allopurinol group
Procedure: as §1, §2, §3, §4, §5, §6, §7, §8
In order to confirm the effect of allopurinol and febuxostat on the kidney disease, the data obtained in the clinical trial described above was analyzed.

Oc1ncnc2[nH]ncc12 [allopurinol]
rate of gout flare [1]: 0.63 per patient-year
eGFR Mean (95% CI) ([2]; Baseline blood glucose level ≥126, Average UA <6, Baseline): 63.77 (62.08-65.46) ml/min/1.73 m^2
eGFR Mean (95% CI) ([2]; Baseline blood glucose level ≥126, Average UA <6, Month 3): 63.92 (62.16-65.69) ml/min/1.73 m^2
eGFR Mean (95% CI) ([2]; Baseline blood glucose level ≥126, Average UA <6, Month 6): 63.77 (61.98-65.56) ml/min/1.73 m^2
eGFR Mean (95% CI) ([2]; Baseline blood glucose level ≥126, Average UA <6, Month 12): 64.33 (62.51-66.15) ml/min/1.73 m^2
eGFR Mean (95% CI) ([2]; Baseline blood glucose level ≥126, Average UA <6, Month 18): 64.04 (61.97-66.10) ml/min/1.73 m^2
eGFR Mean (95% CI) ([2]; Baseline blood glucose level ≥126, Average UA <6, Month 24): 64.60 (62.41-66.78) ml/min/1.73 m^2
eGFR Mean (95% CI) ([2]; Baseline blood glucose level ≥126, Average UA <6, Month 30): 63.32 (60.93-65.71) ml/min/1.73 m^2
eGFR Mean (95% CI) ([2]; Baseline blood glucose level ≥126, Average UA <6, Month 36): 63.57 (60.97-66.18) ml/min/1.73 m^2
eGFR Mean (95% CI) ([2]; Baseline blood glucose level ≥126, Average UA <6, Month 42): 62.14 (59.40-64.89) ml/min/1.73 m^2
eGFR Mean (95% CI) ([2]; Baseline blood glucose level ≥126, Average UA <6, Month 48): 64.42 (61.23-67.61) ml/min/1.73 m^2
eGFR Mean (95% CI) ([2]; Baseline blood glucose level ≥126, Average UA <6, Month 54): 64.35 (61.09-67.61) ml/min/1.73 m^2
eGFR Mean (95% CI) ([2]; Baseline blood glucose level ≥126, Average UA <6, Month 60): 64.49 (60.29-68.70) ml/min/1.73 m^2
eGFR Mean (95% CI) ([2]; Baseline blood glucose level ≥126, Average UA <6, Week 2): 63.46 (61.70-65.22) ml/min/1.73 m^2
eGFR Mean (95% CI) ([2]; Baseline blood glucose level ≥126, Average UA ≥6, Baseline): 62.56 (60.14-64.98) ml/min/1.73 m^2
eGFR Mean (95% CI) ([2]; Baseline blood glucose level ≥126, Average UA ≥6, Month 3): 62.44 (59.88-65.00) ml/min/1.73 m^2
eGFR Mean (95% CI) ([2]; Baseline blood glucose level ≥126, Average UA ≥6, Month 6): 61.37 (58.85-63.90) ml/min/1.73 m^2
eGFR Mean (95% CI) ([2]; Baseline blood glucose level ≥126, Average UA ≥6, Month 12): 62.57 (60.02-65.12) ml/min/1.73 m^2
eGFR Mean (95% CI) ([2]; Baseline blood glucose level ≥126, Average UA ≥6, Month 18): 60.70 (57.80-63.60) ml/min/1.73 m^2
eGFR Mean (95% CI) ([2]; Baseline blood glucose level ≥126, Average UA ≥6, Month 24): 60.72 (57.46-63.99) ml/min/1.73 m^2
eGFR Mean (95% CI) ([2]; Baseline blood glucose level ≥126, Average UA ≥6, Month 30): 60.06 (56.44-63.69) ml/min/1.73 m^2
eGFR Mean (95% CI) ([2]; Baseline blood glucose level ≥126, Average UA ≥6, Month 36): 59.78 (55.61-63.95) ml/min/1.73 m^2
eGFR Mean (95% CI) ([2]; Baseline blood glucose level ≥126, Average UA ≥6, Month 42): 57.66 (52.84-62.48) ml/min/1.73 m^2
eGFR Mean (95% CI) ([2]; Baseline blood glucose level ≥126, Average UA ≥6, Month 48): 56.80 (51.66-61.93) ml/min/1.73 m^2
eGFR Mean (95% CI) ([2]; Baseline blood glucose level ≥126, Average UA ≥6, Month 54): 57.15 (51.53-62.78) ml/min/1.73 m^2
eGFR Mean (95% CI) ([2]; Baseline blood glucose level ≥126, Average UA ≥6, Month 60): 54.70 (48.12-61.28) ml/min/1.73 m^2
eGFR Mean (95% CI) ([2]; Baseline blood glucose level ≥126, Average UA ≥6, Week 2): 62.27 (59.80-64.73) ml/min/1.73 m^2
eGFR Mean (95% CI) ([2]; DBP <80, Average UA <6, Baseline): 62.91 (61.68-64.15) ml/min/1.73 m^2
eGFR Mean (95% CI) ([2]; DBP <80, Average UA <6, Month 3): 63.26 (61.95-64.58) ml/min/1.73 m^2
eGFR Mean (95% CI) ([2]; DBP <80, Average UA <6, Month 6): 63.55 (62.23-64.87) ml/min/1.73 m^2
eGFR Mean (95% CI) ([2]; DBP <80, Average UA <6, Month 12): 64.71 (63.34-66.07) ml/min/1.73 m^2
eGFR Mean (95% CI) ([2]; DBP <80, Average UA <6, Month 18): 64.41 (62.91-65.90) ml/min/1.73 m^2
eGFR Mean (95% CI) ([2]; DBP <80, Average UA <6, Month 24): 64.00 (62.43-65.57) ml/min/1.73 m^2
eGFR Mean (95% CI) ([2]; DBP <80, Average UA <6, Month 30): 64.49 (62.77-66.21) ml/min/1.73 m^2
eGFR Mean (95% CI) ([2]; DBP <80, Average UA <6, Month 36): 63.61 (61.80-65.43) ml/min/1.73 m^2
eGFR Mean (95% CI) ([2]; DBP <80, Average UA <6, Month 42): 63.91 (61.95-65.87) ml/min/1.73 m^2
eGFR Mean (95% CI) ([2]; DBP <80, Average UA <6, Month 48): 64.88 (62.69-67.07) ml/min/1.73 m^2
eGFR Mean (95% CI) ([2]; DBP <80, Average UA <6, Month 54): 64.19 (61.76-66.62) ml/min/1.73 m^2
eGFR Mean (95% CI) ([2]; DBP <80, Average UA <6, Month 60): 64.73 (61.86-67.61) ml/min/1.73 m^2
eGFR Mean (95% CI) ([2]; DBP <80, Average UA <6, Week 2): 62.85 (61.57-64.14) ml/min/1.73 m^2
eGFR Mean (95% CI) ([2]; DBP <80, Average UA ≥6, Baseline): 60.15 (58.18-62.12) ml/min/1.73 m^2
eGFR Mean (95% CI) ([2]; DBP <80, Average UA ≥6, Month 3): 61.22 (59.20-63.24) ml/min/1.73 m^2
eGFR Mean (95% CI) ([2]; DBP <80, Average UA ≥6, Month 6): 61.19 (59.14-63.24) ml/min/1.73 m^2
eGFR Mean (95% CI) ([2]; DBP <80, Average UA ≥6, Month 12): 60.39 (58.37-62.42) ml/min/1.73 m^2
eGFR Mean (95% CI) ([2]; DBP <80, Average UA ≥6, Month 18): 60.06 (57.73-62.40) ml/min/1.73 m^2
eGFR Mean (95% CI) ([2]; DBP <80, Average UA ≥6, Month 24): 59.51 (56.88-62.15) ml/min/1.73 m^2
eGFR Mean (95% CI) ([2]; DBP <80, Average UA ≥6, Month 30): 59.37 (56.35-62.39) ml/min/1.73 m^2
eGFR Mean (95% CI) ([2]; DBP <80, Average UA ≥6, Month 36): 58.89 (55.43-62.34) ml/min/1.73 m^2
eGFR Mean (95% CI) ([2]; DBP <80, Average UA ≥6, Month 42): 57.48 (53.76-61.19) ml/min/1.73 m^2
eGFR Mean (95% CI) ([2]; DBP <80, Average UA ≥6, Month 48): 59.25 (55.00-63.51) ml/min/1.73 m^2
eGFR Mean (95% CI) ([2]; DBP <80, Average UA ≥6, Month 54): 58.18 (53.60-62.76) ml/min/1.73 m^2
eGFR Mean (95% CI) ([2]; DBP <80, Average UA ≥6, Week 2): 61.16 (59.19-63.13) ml/min/1.73 m^2
